Patent publication US12583895B2, “Polypeptides for restoring endothelial function and methods of use thereof” (Vanderbilt University, priority 2019, dated 2026)
“Also recorded” adds a separate entry of the source. Non-standard residues stand in square brackets, D forms with d. No end group written: not given here. pS = N[C@@H](COP(=O)(O)O)C(=O)O

How the values were obtained:
Assay type in all cases: cell-based
[1] = system: rat aorta; assay: Endothelial-dependent relaxation of rat aorta after endoplasmic reticulum stress (tunicamycin) injury; details: NiPp 100 and 500 μM, 2 hours, room temperature
Protocol: (§1) Freshly isolated rat aorta was treated with tunicamycin (TM) to induce injury in the absence or presence of NiPp (100 and 500 μM) for 2 hours at room temperature. To determine the effect of injury on endothelial function, phenylephrine (PE)-precontracted tissues were treated with carbachol (CCH; 10^−8 to 10^−5M) and the percent relaxation was determined as a change to the maximal PE-induced contraction. Data are reported as mean responses±standard deviation. n=6. *p<0.05, two-way ANOVA.
Muscle bath studies. Tissue rings were suspended in bicarbonate buffer in the muscle bath at 37° C., equilibrated with 95% O2/5% CO2 at 37° C. for 1 hour. Rings were manually stretched to 3 grams of tension, followed by a resting tension of 1 gram for an additional 1 hour to produce a maximal force-tension relationship. […] Relaxation was calculated as percent change in stress compared to the maximal PE-induced contraction (set as 100%).
as §1, with “Data are reported as mean responses±standard deviation. n=6. *p<0.05, two-way ANOVA.” left out

[2] = system: rat aorta; assay: Carbachol-induced relaxation of anisomycin-treated rat aorta; details: NiPp 500 μM 30 min pretreatment, then anisomycin 200 μM 1 h
Protocol: (§2) RA rings were suspended in a muscle bath and incubated with either buffer alone (Ctrl), Aniso (200 μM) for 1 h, or NiPp (500 μM) for 30 min followed by Aniso (200 μM) for 1 h. […] Proteins were extracted […] immunoblotted to examine p38MAPK phosphorylation. Quantification of relative phosphorylation to total p38MAPK level is shown. n=10, *p<0.05 in one-way ANOVA with Tukey post-test. NiPp restores endothelial dysfunction and reduced p38 MAPK phosphorylation induced by anisomycin in RA.
RA rings were suspended in a muscle bath and incubated with either buffer alone (Ctrl), Aniso (200 μM) for 1 h, or NiPp (500 μM) for 30 min followed by Aniso (200 μM) for 1 h. […] The force generated was determined and was adjusted to the weight and length of the tissue. Representative tracings from 1 out of 6 different rats are shown. […] Proteins were extracted and phosphorylation of p38 MAPK was determined by Western blot analysis. […] Data are expressed as mean±SD. […]
This produced the maximal force tension relationship as previously described. […] Contractile responses were defined by stress, calculated using force generated by tissues as follows: stress (×10^5 N/m^2)=force (g)×0.0987/area, where area=wet weight (mg)/at maximal length (mm)]/1.055.
Relaxation was calculated as percent change in stress compared to the maximal PE-induced contraction (set as 100%). […]

[3] = system: p38 MAPK phosphorylation; assay: p38 MAPK phosphorylation (Western blot) in anisomycin-treated rat aorta; details: NiPp 500 μM 30 min pretreatment, then anisomycin 200 μM 1 h, immunoblot
Protocol: as §2
RA rings were suspended in a muscle bath and incubated with either buffer alone (Ctrl), Aniso (200 μM) for 1 h, or NiPp (500 μM) for 30 min followed by Aniso (200 μM) for 1 h. […] The force generated was determined and was adjusted to the weight and length of the tissue. […] Proteins were extracted and phosphorylation of p38 MAPK was determined by Western blot analysis. […] Data are expressed as mean±SD.
p38 MAPK activation with Anisomycin. […] After treatments, endothelial-dependent relaxation was determined or tissues were snap-frozen for Western blot analysis.
Western blot Analysis. […] The protein-antibody complexes were visualized and quantified using the Odyssey Infrared Imaging System. Phosphorylation was calculated as a ratio of the phosphorylated protein to total protein and was then normalized to the untreated tissues (Ctrl) with the control value set as 1.0.

Substance: YARAAARQARASPAARRA(pS)AILPG (YARAAARQARASPAARRA[pS]AILPG) [NiPp, Cell-permeant phosphopeptide mimetic of Niban: transduction domain … conjugated to the region surrounding serine 602 of Niban]
- endothelial function (percent relaxation to carbachol) after tunicamycin injury [1]: restored
- endothelial-dependent relaxation (5×10^−7 M CCH) in anisomycin-treated rat aorta [2]: improved; also recorded: prevented; also recorded: restores
- anisomycin-induced p38 MAPK phosphorylation relative to total p38 MAPK [3]: decreased; also recorded: reduced; also recorded: prevented
